US9492471B2, “Methods of treating a disease or disorder associated with Bruton'S Tyrosine Kinase” (Celgene Avilomics Research, Inc., priority 2013, dated 2016)
Where two headings read alike, the source gives them in different places.

How the values were obtained:
Assay in all cases: HotSpot kinase profiling
Assay type in all cases: biochemical
CAMK1b = biological target: T1, CAMK1b (Homo sapiens, UniProt Q6P2M8)
T1 construct: purchased Reaction Biology Corp
Method in brief: (§1)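 Radio-isotope P81 filtration format. Substrate + required cofactors in reaction buffer, kinase added, 2 h RT. Stop, wash with 0.1% phosphoric acid, detect. % inhibition vs DMSO; mean of duplicates where repeated.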

ZAK/MLTK = biological target: T2, ZAK/MLTK (Homo sapiens, UniProt Q9NYL2)
T2 construct: purchased Reaction Biology Corp
Method in brief: as §1

BRSK2 = biological target: T3, BRSK2 (Homo sapiens, UniProt Q8IWQ3)
T3 construct: purchased Reaction Biology Corp
T3 sequence (Q8IWQ3 1-736): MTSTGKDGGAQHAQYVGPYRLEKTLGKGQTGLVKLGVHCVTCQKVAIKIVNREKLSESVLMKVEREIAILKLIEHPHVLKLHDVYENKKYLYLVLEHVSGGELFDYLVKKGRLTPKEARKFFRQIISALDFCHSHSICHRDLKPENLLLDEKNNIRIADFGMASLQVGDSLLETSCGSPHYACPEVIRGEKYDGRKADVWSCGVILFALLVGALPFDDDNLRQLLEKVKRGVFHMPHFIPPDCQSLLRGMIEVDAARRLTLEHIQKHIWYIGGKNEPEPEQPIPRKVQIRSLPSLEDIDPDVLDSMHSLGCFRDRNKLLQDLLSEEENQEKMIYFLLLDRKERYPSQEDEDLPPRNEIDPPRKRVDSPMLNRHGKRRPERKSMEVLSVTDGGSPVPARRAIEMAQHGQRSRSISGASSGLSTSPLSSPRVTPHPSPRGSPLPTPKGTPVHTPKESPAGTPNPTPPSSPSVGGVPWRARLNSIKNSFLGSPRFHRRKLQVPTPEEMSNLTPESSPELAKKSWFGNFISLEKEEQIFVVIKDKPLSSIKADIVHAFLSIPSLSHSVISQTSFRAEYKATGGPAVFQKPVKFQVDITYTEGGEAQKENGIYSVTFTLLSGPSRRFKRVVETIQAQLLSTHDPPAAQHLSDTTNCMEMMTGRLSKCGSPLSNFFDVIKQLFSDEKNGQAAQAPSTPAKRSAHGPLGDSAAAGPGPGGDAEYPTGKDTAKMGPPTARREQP
Method in brief: as §1

P38d/MAPK13 = biological target: T4, P38d/MAPK13 (Homo sapiens, UniProt O15264)
T4 construct: purchased Reaction Biology Corp
T4 sequence (O15264 1-365): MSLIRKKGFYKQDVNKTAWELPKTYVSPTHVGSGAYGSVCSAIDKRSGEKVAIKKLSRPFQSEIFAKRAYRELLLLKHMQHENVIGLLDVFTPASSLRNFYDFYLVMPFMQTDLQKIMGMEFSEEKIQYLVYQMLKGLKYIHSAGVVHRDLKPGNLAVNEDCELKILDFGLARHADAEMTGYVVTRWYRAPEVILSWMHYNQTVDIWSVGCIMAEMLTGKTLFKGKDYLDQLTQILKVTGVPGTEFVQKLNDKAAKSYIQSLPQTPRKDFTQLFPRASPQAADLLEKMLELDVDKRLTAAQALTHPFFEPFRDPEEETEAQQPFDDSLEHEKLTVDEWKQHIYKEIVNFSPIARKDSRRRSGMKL
Method in brief: as §1

ARK5/NUAK1 = biological target: T5, ARK5/NUAK1 (Homo sapiens, UniProt O60285)
T5 construct: purchased Reaction Biology Corp
T5 sequence (O60285 1-661): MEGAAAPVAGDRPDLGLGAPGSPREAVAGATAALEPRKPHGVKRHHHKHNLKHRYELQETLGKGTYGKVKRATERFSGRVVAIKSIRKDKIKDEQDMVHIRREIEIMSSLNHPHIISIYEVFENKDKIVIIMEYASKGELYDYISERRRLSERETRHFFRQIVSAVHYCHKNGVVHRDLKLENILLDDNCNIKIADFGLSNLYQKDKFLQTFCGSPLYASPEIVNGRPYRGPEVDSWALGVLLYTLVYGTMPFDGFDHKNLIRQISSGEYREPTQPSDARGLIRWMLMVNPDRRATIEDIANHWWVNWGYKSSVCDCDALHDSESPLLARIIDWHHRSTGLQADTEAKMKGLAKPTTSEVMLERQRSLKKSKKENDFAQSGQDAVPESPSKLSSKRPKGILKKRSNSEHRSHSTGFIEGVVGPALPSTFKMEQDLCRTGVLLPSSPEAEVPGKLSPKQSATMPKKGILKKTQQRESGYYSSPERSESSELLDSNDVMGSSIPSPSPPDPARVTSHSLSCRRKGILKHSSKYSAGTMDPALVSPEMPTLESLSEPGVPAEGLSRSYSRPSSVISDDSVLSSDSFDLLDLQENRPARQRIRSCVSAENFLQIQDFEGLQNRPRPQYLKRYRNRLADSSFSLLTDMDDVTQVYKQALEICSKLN
Method in brief: as §1

SRPK1 = biological target: T6, SRPK1 (Homo sapiens, UniProt Q96SB4)
T6 construct: purchased Reaction Biology Corp
Method in brief: as §1

SIK2 = biological target: T7, SIK2 (Homo sapiens, UniProt Q9H0K1)
T7 construct: purchased Reaction Biology Corp
Method in brief: as §1

CDK1/cyclin A = biological target: T8, CDK1/cyclin A (Homo sapiens, UniProt P06493)
T8 construct: purchased Reaction Biology Corp
Method in brief: as §1

PLK2 = biological target: T9, PLK2 (Homo sapiens, UniProt Q9NYY3)
T9 construct: purchased Reaction Biology Corp
Method in brief: as §1

[1] = read-out: % Enzyme Activity (relative to DMSO controls) Run 1
[2] = read-out: % Enzyme Activity (relative to DMSO controls) Run 2

T6 sequence (Q96SB4 whole entry): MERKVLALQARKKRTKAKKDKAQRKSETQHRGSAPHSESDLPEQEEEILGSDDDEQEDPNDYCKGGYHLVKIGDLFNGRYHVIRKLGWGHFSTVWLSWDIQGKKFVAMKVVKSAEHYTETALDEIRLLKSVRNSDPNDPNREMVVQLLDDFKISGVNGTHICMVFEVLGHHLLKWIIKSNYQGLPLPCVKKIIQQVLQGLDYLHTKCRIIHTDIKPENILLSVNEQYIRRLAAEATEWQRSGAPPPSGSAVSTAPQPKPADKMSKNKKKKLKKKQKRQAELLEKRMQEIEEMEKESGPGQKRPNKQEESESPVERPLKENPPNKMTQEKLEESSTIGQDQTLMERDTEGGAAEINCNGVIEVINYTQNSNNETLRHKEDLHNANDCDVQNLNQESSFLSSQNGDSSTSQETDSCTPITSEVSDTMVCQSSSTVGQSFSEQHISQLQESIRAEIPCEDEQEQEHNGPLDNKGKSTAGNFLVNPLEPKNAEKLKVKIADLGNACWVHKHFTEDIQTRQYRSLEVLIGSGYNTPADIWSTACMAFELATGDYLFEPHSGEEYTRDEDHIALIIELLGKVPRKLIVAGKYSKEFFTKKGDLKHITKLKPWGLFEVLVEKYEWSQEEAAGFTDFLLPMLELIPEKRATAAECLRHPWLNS
T8 sequence (P06493 whole entry): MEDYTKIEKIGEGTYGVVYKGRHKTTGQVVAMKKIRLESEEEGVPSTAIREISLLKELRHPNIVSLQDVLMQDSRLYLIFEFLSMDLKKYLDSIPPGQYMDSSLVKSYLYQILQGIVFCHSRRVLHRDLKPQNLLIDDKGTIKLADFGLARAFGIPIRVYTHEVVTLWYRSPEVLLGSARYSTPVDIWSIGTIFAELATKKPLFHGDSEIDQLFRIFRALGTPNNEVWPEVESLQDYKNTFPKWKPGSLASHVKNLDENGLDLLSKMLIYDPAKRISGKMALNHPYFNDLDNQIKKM
T8 sequence (P20248 whole entry partner): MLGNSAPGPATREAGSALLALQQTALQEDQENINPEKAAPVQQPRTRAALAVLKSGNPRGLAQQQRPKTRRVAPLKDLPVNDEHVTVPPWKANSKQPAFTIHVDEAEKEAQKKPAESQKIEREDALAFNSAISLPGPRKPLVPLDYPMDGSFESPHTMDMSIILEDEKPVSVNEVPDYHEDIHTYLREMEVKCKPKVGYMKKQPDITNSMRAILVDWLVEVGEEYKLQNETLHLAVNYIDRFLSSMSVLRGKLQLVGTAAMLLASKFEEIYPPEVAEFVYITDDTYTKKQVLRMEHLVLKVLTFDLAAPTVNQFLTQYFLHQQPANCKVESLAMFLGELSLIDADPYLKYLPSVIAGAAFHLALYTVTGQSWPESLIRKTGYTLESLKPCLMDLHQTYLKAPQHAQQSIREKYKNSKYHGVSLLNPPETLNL
T2 sequence (Q9NYL2 whole entry): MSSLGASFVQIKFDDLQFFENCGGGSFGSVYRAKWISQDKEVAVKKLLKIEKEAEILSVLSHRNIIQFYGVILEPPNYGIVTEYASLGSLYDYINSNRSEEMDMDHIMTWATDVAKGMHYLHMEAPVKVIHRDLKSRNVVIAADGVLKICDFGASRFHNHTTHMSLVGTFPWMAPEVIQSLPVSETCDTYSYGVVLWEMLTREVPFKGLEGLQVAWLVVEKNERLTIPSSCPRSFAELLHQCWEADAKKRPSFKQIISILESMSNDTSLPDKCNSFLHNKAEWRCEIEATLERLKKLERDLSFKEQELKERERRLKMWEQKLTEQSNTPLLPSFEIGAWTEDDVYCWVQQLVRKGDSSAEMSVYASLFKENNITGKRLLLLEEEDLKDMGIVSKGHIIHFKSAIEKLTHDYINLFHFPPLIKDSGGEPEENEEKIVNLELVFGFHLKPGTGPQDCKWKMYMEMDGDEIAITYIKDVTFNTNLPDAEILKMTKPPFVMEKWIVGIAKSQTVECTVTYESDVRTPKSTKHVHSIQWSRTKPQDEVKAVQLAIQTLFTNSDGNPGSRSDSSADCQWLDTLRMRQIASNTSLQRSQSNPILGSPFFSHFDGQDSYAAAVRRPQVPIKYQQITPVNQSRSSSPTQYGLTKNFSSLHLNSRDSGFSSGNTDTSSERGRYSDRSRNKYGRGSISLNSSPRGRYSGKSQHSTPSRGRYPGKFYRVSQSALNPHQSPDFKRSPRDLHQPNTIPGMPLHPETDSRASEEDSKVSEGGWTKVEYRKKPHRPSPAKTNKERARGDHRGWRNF
T1 sequence (Q6P2M8 whole entry): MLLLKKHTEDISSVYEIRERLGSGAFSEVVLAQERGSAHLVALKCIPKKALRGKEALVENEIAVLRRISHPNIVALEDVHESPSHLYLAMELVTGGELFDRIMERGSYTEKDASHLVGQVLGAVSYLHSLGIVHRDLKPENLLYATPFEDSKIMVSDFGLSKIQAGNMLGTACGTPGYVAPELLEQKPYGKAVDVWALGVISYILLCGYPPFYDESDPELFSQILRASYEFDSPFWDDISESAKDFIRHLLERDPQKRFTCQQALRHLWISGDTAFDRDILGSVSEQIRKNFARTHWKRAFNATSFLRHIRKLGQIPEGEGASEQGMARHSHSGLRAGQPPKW
T9 sequence (Q9NYY3 whole entry): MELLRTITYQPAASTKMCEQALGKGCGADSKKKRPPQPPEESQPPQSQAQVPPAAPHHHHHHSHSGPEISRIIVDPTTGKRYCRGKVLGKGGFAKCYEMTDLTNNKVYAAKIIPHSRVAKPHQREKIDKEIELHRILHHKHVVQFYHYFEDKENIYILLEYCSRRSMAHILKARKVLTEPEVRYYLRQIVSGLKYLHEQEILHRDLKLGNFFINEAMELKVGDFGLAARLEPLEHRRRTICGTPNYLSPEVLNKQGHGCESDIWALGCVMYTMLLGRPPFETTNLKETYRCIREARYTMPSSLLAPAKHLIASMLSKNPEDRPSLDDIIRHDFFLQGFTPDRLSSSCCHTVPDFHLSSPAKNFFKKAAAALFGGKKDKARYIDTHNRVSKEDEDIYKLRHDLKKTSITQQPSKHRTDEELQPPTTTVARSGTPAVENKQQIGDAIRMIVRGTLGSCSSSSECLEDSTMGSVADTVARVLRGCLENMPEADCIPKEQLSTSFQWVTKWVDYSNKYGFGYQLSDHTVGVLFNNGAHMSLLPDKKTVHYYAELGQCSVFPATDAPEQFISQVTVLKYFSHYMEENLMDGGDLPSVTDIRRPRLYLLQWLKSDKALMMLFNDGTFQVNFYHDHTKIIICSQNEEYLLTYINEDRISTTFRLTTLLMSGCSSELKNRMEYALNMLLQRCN
T7 sequence (Q9H0K1 whole entry): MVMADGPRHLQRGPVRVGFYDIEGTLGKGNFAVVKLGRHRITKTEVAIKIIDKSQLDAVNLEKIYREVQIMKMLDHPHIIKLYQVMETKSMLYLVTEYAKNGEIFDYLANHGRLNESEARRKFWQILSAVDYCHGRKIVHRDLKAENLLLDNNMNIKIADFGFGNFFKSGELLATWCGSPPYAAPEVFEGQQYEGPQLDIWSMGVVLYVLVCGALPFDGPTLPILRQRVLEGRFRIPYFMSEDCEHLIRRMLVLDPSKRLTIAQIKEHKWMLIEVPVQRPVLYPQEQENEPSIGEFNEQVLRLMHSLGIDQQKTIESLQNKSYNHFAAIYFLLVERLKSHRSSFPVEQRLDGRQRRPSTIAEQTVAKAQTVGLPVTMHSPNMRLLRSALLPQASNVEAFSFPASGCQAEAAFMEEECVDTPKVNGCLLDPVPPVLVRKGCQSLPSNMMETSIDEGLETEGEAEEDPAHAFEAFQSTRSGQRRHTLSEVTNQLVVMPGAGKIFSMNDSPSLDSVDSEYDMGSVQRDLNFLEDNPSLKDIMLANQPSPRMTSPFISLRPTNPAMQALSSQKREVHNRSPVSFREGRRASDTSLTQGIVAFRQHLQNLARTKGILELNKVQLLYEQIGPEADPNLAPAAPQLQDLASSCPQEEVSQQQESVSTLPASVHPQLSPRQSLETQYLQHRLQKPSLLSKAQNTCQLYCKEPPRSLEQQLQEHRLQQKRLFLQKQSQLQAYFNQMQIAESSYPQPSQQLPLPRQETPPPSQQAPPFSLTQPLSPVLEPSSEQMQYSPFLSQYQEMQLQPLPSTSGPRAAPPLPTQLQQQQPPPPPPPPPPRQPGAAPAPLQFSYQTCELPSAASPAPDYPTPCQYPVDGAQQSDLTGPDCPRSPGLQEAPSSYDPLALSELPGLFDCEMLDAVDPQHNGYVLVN

With C=CC(=O)Nc1cccc(Nc2nc(Nc3ccc(OCCOC)c(F)c3)ncc2F)c1 [Compound 2] the inhibition at 3 µM (CAMK1b) was -4.43%, the remaining activity at 3 µM (CAMK1b; [1]) was 104% and the remaining activity at 3 µM (CAMK1b; [2]) was 105%. The inhibition at 3 µM (ZAK/MLTK) was 15.7%, the remaining activity at 3 µM (ZAK/MLTK; [1]) was 83.7% and the remaining activity at 3 µM (ZAK/MLTK; [2]) was 85%. For the same compound, the inhibition at 3 µM (BRSK2) was 8.66%, the remaining activity at 3 µM (BRSK2; [1]) was 91% and the remaining activity at 3 µM (BRSK2; [2]) was 91.7%. The inhibition at 3 µM (P38d/MAPK13) was 0.64%, the remaining activity at 3 µM (P38d/MAPK13; [1]) was 98.9% and the remaining activity at 3 µM (P38d/MAPK13; [2]) was 99.8%. The inhibition at 3 µM (ARK5/NUAK1) was 86.7%, the remaining activity at 3 µM (ARK5/NUAK1; [1]) was 13.3% and the remaining activity at 3 µM (ARK5/NUAK1; [2]) was 13.3%. For the same compound, the inhibition at 3 µM (SRPK1) was 2.23%, the remaining activity at 3 µM (SRPK1; [1]) was 98.8% and the remaining activity at 3 µM (SRPK1; [2]) was 96.7%. It also gave an inhibition at 3 µM (SIK2) of 43.3%, a remaining activity at 3 µM (SIK2; [1]) of 56.3% and a remaining activity at 3 µM (SIK2; [2]) of 57.1%. It also gave an inhibition at 3 µM (CDK1/cyclin A) of -18%, a remaining activity at 3 µM (CDK1/cyclin A; [1]) of 112% and a remaining activity at 3 µM (CDK1/cyclin A; [2]) of 124%. For the same compound, the inhibition at 3 µM (PLK2) was 13.3%, the remaining activity at 3 µM (PLK2; [1]) was 86.6% and the remaining activity at 3 µM (PLK2; [2]) was 86.7%.
